Key:
[1] = decomplexation kinetics (kinetic inertia) in acidic aqueous solution, pH 1.2, 37° C.; format: physicochemical; details: same conditions (pH 1.2, 37° C.), comparative
Description: Besides, iso4 is the group of isomers which has the best kinetic inertia (also known as kinetic stability) among the four groups isolated by the inventors. Specifically, the inventors evaluated the kinetic inertia of the four groups of isomers by studying their decomplexation kinetics in acidic aqueous solution (pH=1.2), at 37° C. The half-life time values (T1/2) which were determined for each of the groups of isomers are indicated in table 1 below, the half-life time corresponding to the time after which 50% of the amount of complex initially present has been dissociated, according to the following decomplexation reaction (equation 2): […]

[2] = as described in WO 2014/174120 / for comparative purposes; cited from earlier work

Row | Structure (SMILES) | kinetic inertia [1] [h] | log (Ktherm), stability constant [2] | kinetic inertia (dissociation, in words) [1]
1 | O=C([O-])CN1CCN(CC(=O)[O-])CCN([C@H](CO)[C@H](O)CO)CCN(CC(=O)[O-])CC1.[Gd+3] (racemic) [gadobutrol] | 18 | – | –
2 | O=C([O-])CN1CCN(CC(=O)[O-])CCN(CC(=O)O)CCN(CC(=O)[O-])CC1.[Gd+3] [DOTA-Gd, gadolinium complex of 1,4,7,10-tetraazacyclododecane-N,N′,N″,N′″-tetraacetic acid] | 96 | 25.6 | –
3 | CNC(=O)CN(CCN(CCN(CC(=O)[O-])CC(=O)NC)CC(=O)[O-])CC(=O)[O-].[Gd+3] [gadodiamide] | – | – | dissociate instantaneously
4 | O=C([O-])CN(CCN(CC(=O)[O-])CC(=O)O)CCN(CC(=O)[O-])CC(=O)O.[Gd+3] [gadopentetate] | – | – | dissociate instantaneously
